Experimental data: US9663473B2 (Actelion Pharmaceuticals Ltd, priority 2013, dated 2017)

The molecules below were run against T1, recombinant human ALX receptor (Homo sapiens, UniProt P25090) (assay: Intracellular calcium measurements (FLIPR), ALX receptor agonistic activity). Details: HEK293-hALXR-Gα16 cells, Fluo-4 calcium signal, normalized to WKYMVm 10 nM.
T1 construct: expressed in transfected cells; host or cells: HEK293 (HEK293-hALXR-Gα16)
T1 sequence (P25090 1-351): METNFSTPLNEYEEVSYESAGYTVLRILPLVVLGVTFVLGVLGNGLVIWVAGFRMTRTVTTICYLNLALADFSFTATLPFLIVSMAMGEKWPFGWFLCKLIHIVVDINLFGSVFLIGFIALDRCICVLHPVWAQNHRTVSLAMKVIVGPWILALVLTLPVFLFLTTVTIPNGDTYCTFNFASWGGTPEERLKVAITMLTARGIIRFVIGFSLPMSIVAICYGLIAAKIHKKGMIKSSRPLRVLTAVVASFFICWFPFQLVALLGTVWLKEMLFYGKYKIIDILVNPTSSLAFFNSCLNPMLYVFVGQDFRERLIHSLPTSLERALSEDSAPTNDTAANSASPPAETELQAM
Type: cell-based
How it was run: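 HEK293 cells co-expressing human ALX receptor and Gα16 were loaded with 1 μM Fluo-4 AM for 60 min at 37° C., then exposed to serially diluted compounds on FLIPR Tetra. Peak fluorescence above baseline (ex 488/em 540 nm) was normalized to 10 nM WKYMVm as high control.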

SMILES	EC50
COc1ccc(C[C@@H](NC(=O)N[C@H](C)c2ccccc2OC)c2nc3ccccc3[nH]2)cc1 [Example 327, 1-((R)-1-(1H-Benzo[d]imidazol-2-yl)-2-(4-methoxyphenyl)ethyl)-3-((R)-1-(2-methoxyphenyl)ethyl)urea]	310 nM
COc1ccc(CC(NC(=O)N[C@H]2CC[C@H](O)CC2)c2nc3ccccc3[nH]2)c(F)c1 (single isomer, unassigned; ent-2) [Example 310, 1-(1-(1H-Benzo[d]imidazol-2-yl)-2-(2-fluoro-4-methoxyphenyl)ethyl)-3-(trans-4-hydroxycyclohexyl)urea (ent-2)]	3.3 nM
COc1ccc(C[C@@H](NC(=O)NC2CCN(S(C)(=O)=O)CC2)c2nc3ccccc3[nH]2)cc1 [Example 143, (R)-1-(1-(1H-Benzo[d]imidazol-2-yl)-2-(4-methoxyphenyl)ethyl)-3-(1-(methylsulfonyl)piperidin-4-yl)urea]	108 nM
O=C(NC(Cc1ccc(Br)c(F)c1)c1nc2ccccc2[nH]1)NC12CCC(O)(CC1)CC2 (stereo not shown) [Example 230, 1-(1-(1H-Benzo[d]imidazol-2-yl)-2-(4-bromo-3-fluorophenyl)ethyl)-3-(4-hydroxybicyclo[2.2.2]octan-1-yl)urea]	21 nM
COc1ccc(C[C@@H](NC(=O)N[C@H]2CNC[C@@H]2F)c2nc3ccccc3[nH]2)cc1 (relative stereo) [Example 184, 1-((R)-1-(1H-Benzo[d]imidazol-2-yl)-2-(4-methoxyphenyl)ethyl)-3-((3S*,4S*)-4-fluoropyrrolidin-3-yl)urea]	829 nM
COc1ccc(C[C@@H](NC(=O)NCc2ccncc2)c2nc3ccccc3[nH]2)cc1 [Example 288, (R)-1-(1-(1H-Benzo[d]imidazol-2-yl)-2-(4-methoxyphenyl)ethyl)-3-(pyridin-4-ylmethyl)urea]	853 nM
COc1ccc(C[C@@H](NC(=O)N2CCCC2)c2nc3ccccc3[nH]2)cc1 [Example 91, (R)—N-(1-(1H-Benzo[d]imidazol-2-yl)-2-(4-methoxyphenyl)ethyl)pyrrolidine-1-carboxamide]	561 nM
COc1ccc(CC(NC(=O)N[C@H]2CC[C@H](O)CC2)c2nc3ccc(F)cc3[nH]2)c(F)c1 (relative stereo) [Example 244, 1-(1-(6-Fluoro-1H-benzo[d]imidazol-2-yl)-2-(2-fluoro-4-methoxyphenyl)ethyl)-3-(trans-4-hydroxycyclohexyl)urea]	1.1 nM
COc1ccc(CC(NC(=O)NC23CCC(O)(CC2)CC3)c2nc3ccccc3[nH]2)c(F)c1F (single isomer, unassigned; ent-1) [Example 266, 1-(1-(1H-Benzo[d]imidazol-2-yl)-2-(2,3-difluoro-4-methoxyphenyl)ethyl)-3-(4-hydroxybicyclo[2.2.2]octan-1-yl)urea (ent-1)]	3.3 nM
COc1ccc(C[C@@H](NC(=O)NC2(c3cccc(Cl)c3)CC2)c2nc3ccccc3[nH]2)cc1 [Example 283, (R)-1-(1-(1H-Benzo[d]imidazol-2-yl)-2-(4-methoxyphenyl)ethyl)-3-(1-(3-chlorophenyl)cyclopropyl)urea]	295 nM
COc1ccc(CC(NC(=O)N[C@H]2CC[C@H](O)CC2)c2nc3cc(F)ccc3[nH]2)c(F)c1F (single isomer, unassigned; ent-2) [Example 376, 1-(2-(2,3-Difluoro-4-methoxyphenyl)-1-(5-fluoro-1H-benzo[d]imidazol-2-yl)ethyl)-3-(trans-4-hydroxycyclohexyl)urea (ent-2)]	67 nM
COc1ccc(C[C@@H](NC(=O)NC2CCCC2)c2nc3ccccc3[nH]2)cc1 [Example 75, (R)-1-(1-(1H-Benzo[d]imidazol-2-yl)-2-(4-methoxyphenyl)ethyl)-3-cyclopentylurea]	41 nM
COc1ccc(C[C@@H](NC(=O)N[C@H]2CCN(C(=O)OC(C)(C)C)C2)c2nc3ccccc3[nH]2)cc1 [Example 119, (S)-tert-Butyl 3-(3-((R)-1-(1H-benzo[d]imidazol-2-yl)-2-(4-methoxyphenyl)ethyl)ureido)pyrrolidine-1-carboxylate]	539 nM
CCn1ccc(C(C)NC(=O)N[C@H](Cc2ccc(OC)cc2)c2nc3ccccc3[nH]2)n1 (stereo partly drawn) [Example 289, 1-((R)-1-(1H-Benzo[d]imidazol-2-yl)-2-(4-methoxyphenyl)ethyl)-3-(1-(1-ethyl-1H-pyrazol-3-yl)ethyl)urea]	59 nM
COc1ccc(C[C@@H](NC(=O)N[C@H](C)[C@@H](O)c2ccccc2)c2nc3ccccc3[nH]2)cc1 [Example 209, 1-((R)-1-(1H-Benzo[d]imidazol-2-yl)-2-(4-methoxyphenyl)ethyl)-3-((1S,2R)-1-hydroxy-1-phenylpropan-2-yl)urea]	1.5 nM
COc1ccc(CCNC(=O)N[C@H](Cc2ccc(OC)cc2)c2nc3ccccc3[nH]2)cc1 [Example 54, (R)-1-(1-(1H-Benzo[d]imidazol-2-yl)-2-(4-methoxyphenyl)ethyl)-3-(4-methoxyphenethyl)urea]	987 nM
COc1ccc(CC(NC(=O)N[C@H](C)c2cccc(Cl)c2)c2nc3ccccc3[nH]2)cc1 (stereo partly drawn) [Example 41, 1-(1-(1H-Benzo[d]imidazol-2-yl)-2-(4-methoxyphenyl)ethyl)-3-((R)-1-(3-chlorophenyl)ethyl)urea]	776 nM
COc1ccc(C[C@@H](NC(=O)N[C@H](C)c2ccc(F)cc2)c2nc3ccccc3[nH]2)cc1 [Example 320, 1-((R)-1-(1H-Benzo[d]imidazol-2-yl)-2-(4-methoxyphenyl)ethyl)-3-((R)-1-(4-fluorophenyl)ethyl)urea]	185 nM
COc1ccc(C[C@@H](NC(=O)NCCO)c2nc3ccccc3[nH]2)cc1 [Example 94, (R)-1-(1-(1H-Benzo[d]imidazol-2-yl)-2-(4-methoxyphenyl)ethyl)-3-(2-hydroxyethyl)urea]	570 nM
COc1ccc(CC(NC(=O)Nc2ccnn2C(C)(C)C)c2nc3ccccc3[nH]2)cc1 (stereo not shown) [Example 414, 1-(1-(1H-benzo[d]imidazol-2-yl)-2-(4-methoxyphenyl)ethyl)-3-(1-(tert-butyl)-1H-pyrazol-5-yl)urea]	30 nM
COc1ccc(C[C@@H](NC(=O)NCCCO)c2nc3ccccc3[nH]2)cc1 [Example 95, (R)-1-(1-(1H-Benzo[d]imidazol-2-yl)-2-(4-methoxyphenyl)ethyl)-3-(3-hydroxypropyl)urea]	195 nM
O=C(N[C@H](Cc1ccc(Br)cc1)c1nc2ccc(F)cc2[nH]1)NC12CCC(O)(CC1)CC2 [Example 195, (R)-1-(2-(4-Bromophenyl)-1-(6-fluoro-1H-benzo[d]imidazol-2-yl)ethyl)-3-(4-hydroxybicyclo[2.2.2]octan-1-yl)urea]	1.1 nM
COc1ccc(C[C@@H](NC(=O)N[C@@H](C)c2ccccc2OC)c2nc3ccccc3[nH]2)cc1 [Example 326, 1-((R)-1-(1H-Benzo[d]imidazol-2-yl)-2-(4-methoxyphenyl)ethyl)-3-((S)-1-(2-methoxyphenyl)ethyl)urea]	46 nM
COc1ccc(C[C@@H](NC(=O)NCCC2CCN(C(C)=O)CC2)c2nc3ccccc3[nH]2)cc1 [Example 159, (R)-1-(1-(1H-Benzo[d]imidazol-2-yl)-2-(4-methoxyphenyl)ethyl)-3-(2-(1-acetylpiperidin-4-yl)ethyl)urea]	876 nM
COc1ccc(C[C@@H](NC(=O)NCc2ccccc2CN(C)C)c2nc3ccccc3[nH]2)cc1 [Example 199, (R)-1-(1-(1H-Benzo[d]imidazol-2-yl)-2-(4-methoxyphenyl)ethyl)-3-(2-((dimethylamino)methyl)benzyl)urea]	81 nM
